The text below walks through data of article PMC5391016 (PLoS ONE, 2017).

The assay has as its system T1, Epac1-camps-PDE4A1.
T1 construct: gene RAPGEF3
The following applies: read-out: pEC50 5.56 ± 0.08 (converted); 10 mM Tris, 10 mM MgCl2; apparent affinity; PDE catalytically impaired.

Regarding `Nc1ncnc2c1ncn2[C@@H]1O[C@@H]2COP(=O)(O)O[C@H]2[C@H]1O` [cAMP], the EC50 was 2700 nM.
